From patent US11891394B1, “Pyrrolo[2,3-c][1,6]naphthyridine-8-carboxylic acid compounds as CK2 inhibitors” (KING FAISAL UNIVERSITY, priority 2023, dated 2024)

How the values were obtained:
[1] = system: MDA-MB-231 (breast); assay: In vitro cytotoxic activity (MTT) assay, MDA-MB-231; format: cell-based; conditions: Homo sapiens, exposed 96 hours, read-out: IC50, 50% inhibition of cell proliferation
Procedure: (§1) Compounds 1-16 were screened for their in vitro cytotoxic activity utilizing a 3-(4,5-dimethyl-thiazol-2-yl)-2,5-diphenyltetrazolium bromide (MTT) assay against selected cancer human cell lines consisting of PC3 (prostate), HCT116 (colon), A375 (melanoma), H1299 (lung), MIAPaCa-2 (pancreas), HL60 (leukemia), MCF7 (breast), MDA-MB-231 (breast) (T. Mosmann, J. Immunol. Meth., 1983, 65, 55-63). The cells were cultured at 37° C. in RMPI1640 medium supplemented with 10% fetal bovine serum, 50 IU/mL penicillin, and 50 μg/mL streptomycin in a 5% CO2 incubator. All cells were sub-cultured 3 times/week by trypsinisation. Viable cells were seeded and allowed to adhere for 12 h before a test drug was added in 96-well plates at an initial density of 1.0×10^5 cells/mL. Tumour cell lines were separately exposed to various concentrations of the tested compounds followed by incubation at a temperature of 37° C. during 96 h inside a medium of fresh RMPI 1640. Cells were subsequently incubated at 37° C. using MTT at 0.5 mg/mL during 4 h. After removal of supernatant, formazan crystals were dissolved in isopropanol and the optical density was measured at 570 nm. CX-4945 was used as a positive control.

[2] = system: MCF7 (breast); assay: In vitro cytotoxic activity (MTT) assay, MCF7; format: cell-based; conditions: Homo sapiens, exposed 96 hours, read-out: IC50, 50% inhibition of cell proliferation
Procedure: as §1

[3] = system: H1299 (lung); assay: In vitro cytotoxic activity (MTT) assay, H1299; format: cell-based; conditions: Homo sapiens, NCI-H1299, exposed 96 hours, read-out: IC50, 50% inhibition of cell proliferation
Procedure: as §1

[4] = system: PC3 (prostate); assay: In vitro cytotoxic activity (MTT) assay, PC3; format: cell-based; conditions: Homo sapiens, exposed 96 hours, read-out: IC50, 50% inhibition of cell proliferation
Procedure: as §1

[5] = system: A375 (melanoma); assay: In vitro cytotoxic activity (MTT) assay, A375; format: cell-based; conditions: Homo sapiens, A-375, exposed 96 hours, read-out: IC50, 50% inhibition of cell proliferation
Procedure: as §1

[6] = system: HL60 (leukemia); assay: In vitro cytotoxic activity (MTT) assay, HL60; format: cell-based; conditions: Homo sapiens, HL-60, exposed 96 hours, read-out: IC50, 50% inhibition of cell proliferation
Procedure: as §1

[7] = system: MIAPaCa-2 (pancreas); assay: In vitro cytotoxic activity (MTT) assay, MIAPaCa-2; format: cell-based; conditions: Homo sapiens, MIA PaCa-2, exposed 96 hours, read-out: IC50, 50% inhibition of cell proliferation
Procedure: as §1

[8] = biological target: T1, recombinant human CK2 (RRββ-holoenzyme) (Homo sapiens, UniProt P68400); assay: CK2 Kinase Assay (33P-ATP, peptide RRRDDDSDDD); format: biochemical; conditions: final ATP 15 μM, 10 min at 30° C.; read-out: IC50, protein kinase CK2 activity
T1 construct: purchased Millipore
Procedure: CK2 Kinase Assay was conducted using the protocol as described in Pierre F. et al; J. Med. Chem. 2011, 54, 635-654. The tested compounds in aqueous solution were added at a volume of 10 μL to a reaction mixture comprising 10 μL of assay dilution buffer (ADB; 20 mM MOPS, pH 7.2, 25 mM β-glycerol phosphate, 5 mM EGTA, 1 mM sodium orthovanadate, and 1 mM dithiothreitol), 10 μL of substrate peptide (RRRDDDSDDD, dissolved in ADB at a concentration of 1 mM), 10 μL of recombinant human CK2 (RRββ-holoenzyme, 25 ng dissolved in ADB; Millipore). Reactions were initiated by the addition of 10 μL of ATP solution (90% 75 mMMgCl2, 75 μM ATP (final ATP concentration: 15 μM) dissolved in ADB; 10% [γ-33P] ATP (stock 1 mCi/100 μL; 3000 Ci/mmol (Perkin-Elmer) and maintained for 10 min at 30° C. The reactions were quenched with 100 μL of 0.75% phosphoric acid and then transferred to and filtered through a phosphor cellulose filter plate (Millipore). After washing each well five times with 0.75% phosphoric acid, the plate was dried under vacuum for 5 min and, following the addition of 15 μL of scintillation fluid to each well, the residual radioactivity was measured using a Wallac […] counter. The IC50 values were derived from eight concentrations of test inhibitors.

[9] = system: HCT116 (colon); assay: In vitro cytotoxic activity (MTT) assay, HCT116; format: cell-based; conditions: Homo sapiens, HCT-116, exposed 96 hours, read-out: IC50, 50% inhibition of cell proliferation
Procedure: as §1

T1 sequence (P68400 whole entry): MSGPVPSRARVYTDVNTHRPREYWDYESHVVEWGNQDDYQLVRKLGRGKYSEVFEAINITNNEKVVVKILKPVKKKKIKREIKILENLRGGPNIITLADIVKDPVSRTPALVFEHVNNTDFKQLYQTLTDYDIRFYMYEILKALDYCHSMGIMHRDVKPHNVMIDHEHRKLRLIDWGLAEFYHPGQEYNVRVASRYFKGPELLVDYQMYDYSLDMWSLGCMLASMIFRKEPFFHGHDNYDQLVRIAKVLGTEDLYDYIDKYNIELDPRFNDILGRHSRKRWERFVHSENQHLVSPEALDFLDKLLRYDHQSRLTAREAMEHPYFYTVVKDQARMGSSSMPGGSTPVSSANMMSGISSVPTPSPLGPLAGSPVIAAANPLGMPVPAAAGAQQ
T1 sequence (P67870 whole entry partner): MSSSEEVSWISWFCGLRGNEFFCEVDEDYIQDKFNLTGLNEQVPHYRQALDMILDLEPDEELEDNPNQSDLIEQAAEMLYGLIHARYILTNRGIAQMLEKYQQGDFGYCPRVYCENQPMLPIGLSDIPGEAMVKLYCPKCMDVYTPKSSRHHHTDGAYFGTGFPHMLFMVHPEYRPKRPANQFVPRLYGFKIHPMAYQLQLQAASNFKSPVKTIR

`O=C(O)c1cc2c([nH]1)c(Nc1cccc(Cl)c1)nc1ccncc12` [Compound 1, 6-((3-chlorophenyl)amino)-7H-pyrrolo[2,3-c][1,6]naphthyridine-8-carboxylic acid] gave an IC50 [1] of 3.2 µM, an IC50 [2] of 3.9 µM and an IC50 [3] of 1.1 µM. For the same compound, the IC50 [4] was 1.8 µM, the IC50 [5] was 2.5 µM and the IC50 [6] was 2.8 µM. The IC50 [7] was 1.3 µM, the IC50 [8] was 0.021 µM and the IC50 [9] was 1.6 µM.
